# In patent US11944605B2, “Rapamycin analogs and uses thereof” (Janssen Pharmaceutica NV, priority 2018, dated 2024):
# Legend:
# mTORC1 over mTORC2 = test: mTORC1 selectivity over mTORC2 at 24 hrs (Western blot based pS6K1 and pAKT assay); type: cell-based; details: 24 hrs
# Description: Western Blot Based pS6K1 and pAKT Assay at 24 and 48 Hour Timepoints
# 1. Seed six well plate with 500,000 PC3 cells per well and incubate for 20˜24 hour.
# 2. Add compounds into the cell plate. Incubate for 24 to 48 hours.
# 4. Plate is placed on ice and the media is removed via aspiration. The wells are washed with 1 mL of 1× PBS and then fully aspirated.
# 5. 110 μL of 1% Triton Lysis Buffer is added and each well is scraped vigorously.
# 6. Cell homogenates are transferred to 1.5 mL eppendorf tubes on ice and spun down at 4° C. for 10 minutes at 10,000 rpm.
# 9. The membranes were washed 3× with TBS-T with a 5 minute incubation between each wash then incubated with secondary antibody (LiCor IRDye 800 Donkey Anti Rabbit) for at least 30 minutes.
# 10. The membranes were washed 3× with TBS-T with a 5 minute incubation between each wash.
# 11. The gels were then incubated for 5 minutes with PBS at room temperature then imaged using a Li-Cor.
# “N/A” stands for “not assayed.”
# [1] = test system: pS6K1 (p-p70 S6 Kinase (Thr389)) in MCF-7 cells; test: AlphaLISA Ultra pS6K1 Assay; type: cell-based; details: Homo sapiens, 1.5 h; MCF7 cells, 90 min
# Description: AlphaLISA Ultra pS6K1 Assay
# 1. Seed MCF-7 cells in Corning 3701 plate and incubate for 20˜24 hour. 12,000˜16,000 cells will be seeded in 36 μL medium per well.
# 2. Change the culture medium with fresh medium and incubate for another 2 hours.
# 3. Add 12 μL (4×) compounds into the cell plate by HAMILTON. Final DMSO concentration is 0.5%. Incubate for 90 minutes.
# 4. Aspirate […] by HAMILTON, 10 μL rest per well.
# 5. Add 10 μL 2× lysis buffer using HAMILTON; total volume in wells is 20 μL. Allow cells to shake for 30 min. Cover plate by plastic foil and store plate at −80° C. up to analysis.
# 6. Thaw cell lysate at RT and transfer 10 μL lysate to assay plate (Optiplate-384).
# 7. Add 5 μL acceptor beads into assay plate and incubation for 2 hours
# 8. Add 5 μL donor beads and incubation for 2 hours
# 9. Count the plate by EnSpire Multimode Plate Reader
SMILES,IC50 [1],mTORC1 selective @ 24 hrs (mTORC1 over mTORC2)
"CO[C@@H]1C[C@H](C[C@@H](C)[C@@H]2CC(=O)[C@H](C)/C=C(\C)[C@@H](O)[C@@H](OC)C(=O)[C@H](C)C[C@H](C)/C=C/C=C/C=C(\C)[C@@H](OCC3COCCOCCOCCOCCO3)C[C@@H]3CC[C@@H](C)[C@@](O)(O3)C(=O)C(=O)N3CCCC[C@H]3C(=O)O2)CC[C@H]1O (stereo partly drawn) [I-108, (30E, 32E,34E,35E,38R,39S,40R,41R,43S,45S,47S,48S,50R,51R,60R)-50, 60-dihydroxy-48-[(1R)-2-[(1S,3R,4R)-4-hydroxy-3-methoxy-cyclohexyl]-1-methyl-ethyl]-51-methoxy-38, 39,40,41,52,53-hexamethyl-47-(1,4,7,10,13-pentaoxacyclopentadec-2-ylmethoxy)-75, 76-dioxa-61-azatricyclohexatriaconta-30, 32,34(52),35(53)-tetraene-54,55,56,57,58-pentone]",0.1 to 1 nM,YES
CO[C@@H]1C[C@H](C[C@@H](C)[C@@H]2CC(=O)[C@H](C)/C=C(\C)[C@@H](O)[C@@H](OC)C(=O)[C@H](C)C[C@H](C)/C=C/C=C/C=C(\C)[C@H](OCCOCCOCC(F)(F)F)C[C@@H]3CC[C@@H](C)[C@@](O)(O3)C(=O)C(=O)N3CCCC[C@H]3C(=O)O2)CC[C@H]1OCCO [I-84],0.1 to 1 nM,YES
"CNC(=O)CCCO[C@H]1C[C@@H]2CC[C@@H](C)[C@@](O)(O2)C(=O)C(=O)N2CCCC[C@H]2C(=O)O[C@H]([C@H](C)C[C@@H]2CC[C@@H](OCCO)[C@H](OC)C2)CC(=O)[C@H](C)/C=C(\C)[C@@H](O)[C@@H](OC)C(=O)[C@H](C)C[C@H](C)/C=C/C=C/C=C/1C [I-60, 4-[[(22E, 24E,26E,27E,34R,35S,36R,37R,39S,41S,43S,44S,45R,46R,56R)-45, 56-dihydroxy-44-[(1R)-2-[(1S,3R,4R)-4-(2-hydroxyethoxy)-3-methoxy-cyclohexyl]-1-methyl-ethyl]-46-methoxy-34, 35,36,37,47,48-hexamethyl-49,50,51,52,53-pentaoxo-68,69-dioxa-58-azatricyclohexatriaconta-22, 24,26(47),27(48)-tetraen-43-yl]oxy]-N-methyl-butanamide]",1 to 10 nM,YES
"CO[C@@H]1C[C@H](C[C@@H](C)[C@@H]2CC(=O)[C@H](C)/C=C(\C)[C@@H](O)[C@@H](OC)C(=O)[C@H](C)C[C@H](C)/C=C/C=C/C=C(\C)[C@@H](OCCS(=O)(=O)CCS(=O)(=O)CCO)C[C@@H]3CC[C@@H](C)[C@@](O)(O3)C(=O)C(=O)N3CCCC[C@H]3C(=O)O2)CC[C@H]1O [I-95, (21E,23E,25E,26E,34R,35S,36R,37R,39S,41S,43S,44S,45R,46R,55R)-45, 55-dihydroxy-43-[2-[2-(2-hydroxyethylsulfonyl)ethylsulfonyl]ethoxy]-44-[(1R)-2-[(1S,3R, 4R)-4-hydroxy-3-methoxy-cyclohexyl]-1-methyl-ethyl]-46-methoxy-34,35,36,37,47,48-hexamethyl-70, 71-dioxa-56-azatricyclohexatriaconta-21,23,25(47),26(48)-tetraene-49, 50,51,52,53-pentone]",–,YES
"CNC(=O)CCCOC1C[C@@H]2CC[C@@H](C)[C@@](O)(O2)C(=O)C(=O)N2CCCC[C@H]2C(=O)OC([C@H](C)CC2CC[C@@H](OCCO)[C@H](OC)C2)CC(=O)[C@H](C)/C=C(\C)[C@@H](O)[C@@H](OC)C(=O)[C@H](C)C[C@H](C)/C=C/C=C/C=C/1C (stereo partly drawn) [I-68, 4-[[(22E,24E,26E,27E,34R,35S,36R,37R,39S,41S,44S,45R,46R, 56R)-45,56-dihydroxy-44-[(1R)-2-[(1S,3R,4R)-4-(2-hydroxyethoxy)-3-methoxy-cyclohexyl]-1-methyl-ethyl]-46-methoxy-34, 35,36,37,47,48-hexamethyl-49,50,51,52,53-pentaoxo-68,69-dioxa-58-azatricyclohexatriaconta-22, 24,26(47),27(48)-tetraen-43-yl]oxy]-N-methyl-butanamide]",1 to 10 nM,YES
"CO[C@@H]1C[C@H](C[C@@H](C)[C@@H]2CC(=O)[C@H](C)/C=C(\C)[C@@H](O)[C@@H](OC)C(=O)[C@H](C)C[C@H](C)/C=C/C=C/C=C(\C)[C@H](OCCCC(=O)N(C)C)C[C@@H]3CC[C@@H](C)[C@@](O)(O3)C(=O)C(=O)N3CCCC[C@H]3C(=O)O2)CC[C@H]1OCCO [I-61, 4-[[(23E,25E,27E,28E,35R,36S,37R,38R,40S,42S,44R,45S,46R,47R,57R)-46, 57-dihydroxy-45-[(1R)-2-[(1S,3R,4R)-4-(2-hydroxyethoxy)-3-methoxy-cyclohexyl]-1-methyl-ethyl]-47-methoxy-35, 36,37,38,48,49-hexamethyl-50,51,52,53,54-pentaoxo-69,70-dioxa-58-azatricyclohexatriaconta-23, 25,27(48),28(49)-tetraen-44-yl]oxy]-N,N-dimethyl-butanamide]",1 to 10 nM,YES

# Second part, led by results:
IC50 [1],SMILES,mTORC1 selective @ 24 hrs (mTORC1 over mTORC2)
< 0.1 nM,"COCCOCCO[C@@H]1C[C@@H]2CC[C@@H](C)[C@@](O)(O2)C(=O)C(=O)N2CCCC[C@H]2C(=O)O[C@H]([C@H](C)C[C@@H]2CC[C@@H](O)[C@H](OC)C2)CC(=O)[C@H](C)/C=C(\C)[C@@H](O)[C@@H](OC)C(=O)[C@H](C)C[C@H](C)/C=C/C=C/C=C/1C [I-119, (22E,24E,26E,27E,33R,34S,35R,36R,38S,40S,43S,44R,45R,54R)-44,54-dihydroxy-43-[(1R)-2-[(1S, 3R,4R)-4-hydroxy-3-methoxy-cyclohexyl]-1-methyl-ethyl]-45-methoxy-42-[R-2-(2-methoxyethoxy)ethoxy]-33, 34,35,36,46,47-hexamethyl-64,65-dioxa-55-azatricyclohexatriaconta-22, 24,26(46),27(47)-tetraene-48,49,50,51,52-pentone]",YES
0.1 to 1 nM,"CO[C@@H]1C[C@H](C[C@@H](C)[C@@H]2CC(=O)[C@H](C)/C=C(\C)[C@@H](O)[C@@H](OC)C(=O)[C@H](C)C[C@H](C)/C=C/C=C/C=C(\C)[C@H](OCCOCCO)C[C@@H]3CC[C@@H](C)[C@@](O)(O3)C(=O)C(=O)N3CCCC[C@H]3C(=O)O2)CC[C@H]1OCCO [I-116, (21E,23E,25E,26E,34R,35S,36R,37R,39S,41S,43R,44S,45R,46R,55R)-45, 55-dihydroxy-43-[2-(2-hydroxyethoxy)ethoxy]-44-[(1R)-2-[(1S,3R, 4R)-4-(2-hydroxyethoxy)-3-methoxy-cyclohexyl]-1-methyl-ethyl]-46-methoxy-34,35,36,37,47,48-hexamethyl-66,67-dioxa-56-azatricyclohexatriaconta-21, 23,25(47),26(48)-tetraene-49,50,51,52,53-pentone]",YES
